Experimental data: ChEMBL document CHEMBL1201862, “PubChem BioAssay data set” (2004)
Where a name gives a salt, the structure may show the parent alone. Active and inactive are the calls of the source.

Tests used:
[1] = Luminescence Cell-Based Dose Retest to Confirm Inhibitors of Cancer Stem Cells. [Related pubchem assays (depositor defined):AID2717, AID2721]; format: functional; settings: Homo sapiens
Protein RecA = target: T1, Protein RecA (Mycobacterium tuberculosis, UniProt P9WHJ3); experiment: Fluorescence Cell-Free Homogeneous Dose Retest to Identify Inhibitors of RecA-Intein Splicing Activity. [Related pubchem assays (depositor defined):AID2097, AID2223, AID489010, AID492950]; format: functional
T1 sequence (P9WHJ3 whole entry): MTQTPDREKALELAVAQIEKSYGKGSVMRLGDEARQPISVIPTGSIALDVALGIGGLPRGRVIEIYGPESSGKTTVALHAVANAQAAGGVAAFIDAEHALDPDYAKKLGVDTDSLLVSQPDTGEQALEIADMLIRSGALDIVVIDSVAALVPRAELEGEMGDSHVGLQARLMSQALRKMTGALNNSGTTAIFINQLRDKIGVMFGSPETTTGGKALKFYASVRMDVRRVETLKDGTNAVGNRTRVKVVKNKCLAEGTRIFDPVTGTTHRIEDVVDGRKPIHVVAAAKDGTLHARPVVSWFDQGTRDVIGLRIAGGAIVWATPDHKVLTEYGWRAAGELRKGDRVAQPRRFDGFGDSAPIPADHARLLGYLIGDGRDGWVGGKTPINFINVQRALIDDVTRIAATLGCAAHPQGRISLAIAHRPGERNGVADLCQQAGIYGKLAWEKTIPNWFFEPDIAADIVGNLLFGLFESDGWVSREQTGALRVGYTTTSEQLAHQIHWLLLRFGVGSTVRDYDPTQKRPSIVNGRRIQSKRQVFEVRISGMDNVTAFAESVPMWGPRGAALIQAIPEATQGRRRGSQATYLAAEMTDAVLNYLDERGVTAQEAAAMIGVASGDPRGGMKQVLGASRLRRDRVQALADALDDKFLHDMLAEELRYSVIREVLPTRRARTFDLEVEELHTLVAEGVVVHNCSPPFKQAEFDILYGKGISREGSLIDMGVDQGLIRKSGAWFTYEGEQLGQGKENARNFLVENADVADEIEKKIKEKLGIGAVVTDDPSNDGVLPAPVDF

[2] = target: T2, Replicative DNA helicase DnaB (Mycobacterium tuberculosis, UniProt P9WMR3); experiment: DnaB intein splicing inhibitors, dose response, biochemical, cell-free fluorescence (AID 449749); format: functional
T2 sequence (P9WMR3 whole entry): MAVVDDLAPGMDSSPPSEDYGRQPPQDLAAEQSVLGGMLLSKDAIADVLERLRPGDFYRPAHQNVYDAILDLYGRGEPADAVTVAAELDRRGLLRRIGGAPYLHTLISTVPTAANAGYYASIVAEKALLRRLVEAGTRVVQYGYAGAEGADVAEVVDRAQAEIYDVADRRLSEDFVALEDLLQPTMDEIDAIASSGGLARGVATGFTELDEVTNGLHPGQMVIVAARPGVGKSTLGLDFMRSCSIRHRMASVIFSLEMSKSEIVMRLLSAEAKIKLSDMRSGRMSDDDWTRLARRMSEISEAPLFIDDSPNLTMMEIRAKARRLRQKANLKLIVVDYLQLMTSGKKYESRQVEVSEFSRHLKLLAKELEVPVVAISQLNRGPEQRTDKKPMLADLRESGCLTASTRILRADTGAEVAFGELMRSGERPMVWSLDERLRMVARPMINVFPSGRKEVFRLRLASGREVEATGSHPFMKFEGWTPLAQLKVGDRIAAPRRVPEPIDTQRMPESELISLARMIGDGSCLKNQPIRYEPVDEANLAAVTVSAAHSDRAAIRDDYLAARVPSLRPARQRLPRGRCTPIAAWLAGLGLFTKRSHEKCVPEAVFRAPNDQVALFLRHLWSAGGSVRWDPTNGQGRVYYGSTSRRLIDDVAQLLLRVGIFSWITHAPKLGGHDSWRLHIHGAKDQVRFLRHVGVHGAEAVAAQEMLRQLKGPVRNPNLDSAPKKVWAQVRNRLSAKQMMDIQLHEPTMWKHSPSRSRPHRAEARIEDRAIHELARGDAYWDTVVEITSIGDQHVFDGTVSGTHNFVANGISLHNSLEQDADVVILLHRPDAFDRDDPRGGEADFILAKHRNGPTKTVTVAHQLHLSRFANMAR

cells [3] = format: functional, cell-based
cells [4] = format: functional, cell-based; remark: listed apart in the source
Vero = experiment: cells; format: functional; settings: Chlorocebus sabaeus
[5] = target: ATP-dependent molecular chaperone HSP82 (Candida albicans (strain WO-1) (Yeast), UniProt C4YTQ8); experiment: steroid-induced GRE reporter decrease in yeast – S. cerevisiae, luminescence, Hsp90 inhibitor project, dose response (AID 2400); format: functional, cell-based;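 further: beta-galactosidase luminescence from glucocorticoid response element reporter as proxy for Hsp90 function; inhibitor potency where signal loss means Hsp90 inhibition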
[6] = NIH-3T3 fibroblast cytotoxicity, dose response, cytotoxicity control, cell-based, fluorescence, Alamar Blue, secondary assay (AID 2327); format: functional;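 further: NIH-3T3 mouse fibroblasts cultured with fluconazole at 8 µg/mL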
[7] = fluconazole-exposed Candida albicans growth modulators – fluorescence, retest, confirmation (AID 2467); format: functional, cell-based
[8] = target: T3, Serine/threonine-protein phosphatase (Candida dubliniensis (strain CD36 / CBS 7987 / NCPF 3949 / NRRLY-17841) (Yeast), UniProt B9W6M3); experiment: blockers of CaCl2-induced CDRE-lacZ signaling – S. cerevisiae, luminescence, secondary, dose response (AID 2388); format: functional, cell-based;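 further: yeast reporter cells carrying a calcineurin-responsive lacZ construct stimulated with calcium chloride; luminescent beta-galactosidase reporter signal in whole cells rather than isolated phosphatase activity; potency for inhibition where a drop in reporter signal means calcineurin blockade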
T3 sequence (B9W6M3 whole entry): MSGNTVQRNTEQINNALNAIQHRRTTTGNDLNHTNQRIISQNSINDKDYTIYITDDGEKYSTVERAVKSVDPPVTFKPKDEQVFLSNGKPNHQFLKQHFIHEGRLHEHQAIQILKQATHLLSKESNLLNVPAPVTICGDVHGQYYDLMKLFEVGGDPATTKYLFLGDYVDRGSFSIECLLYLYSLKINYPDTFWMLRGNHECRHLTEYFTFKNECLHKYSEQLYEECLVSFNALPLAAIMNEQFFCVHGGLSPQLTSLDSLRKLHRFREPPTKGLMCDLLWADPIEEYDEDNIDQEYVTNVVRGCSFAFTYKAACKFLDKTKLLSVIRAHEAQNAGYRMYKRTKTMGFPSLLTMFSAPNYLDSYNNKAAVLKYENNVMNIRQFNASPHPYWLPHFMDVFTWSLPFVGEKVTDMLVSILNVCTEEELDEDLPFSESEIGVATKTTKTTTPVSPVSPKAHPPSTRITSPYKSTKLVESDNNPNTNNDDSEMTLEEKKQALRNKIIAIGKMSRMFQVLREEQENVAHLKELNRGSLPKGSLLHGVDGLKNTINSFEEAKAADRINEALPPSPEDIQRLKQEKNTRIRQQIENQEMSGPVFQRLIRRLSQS

[9] = target: T4, Short transient receptor potential channel 4 (Mus musculus, UniProt Q9QUQ5); experiment: calcium entry via TRPC4 opening agents – cell-based, HEK293 TRPC4/mu-opioid, Fluo-4 calcium, dose response (AID 434937); format: functional
T4 sequence (Q9QUQ5 whole entry): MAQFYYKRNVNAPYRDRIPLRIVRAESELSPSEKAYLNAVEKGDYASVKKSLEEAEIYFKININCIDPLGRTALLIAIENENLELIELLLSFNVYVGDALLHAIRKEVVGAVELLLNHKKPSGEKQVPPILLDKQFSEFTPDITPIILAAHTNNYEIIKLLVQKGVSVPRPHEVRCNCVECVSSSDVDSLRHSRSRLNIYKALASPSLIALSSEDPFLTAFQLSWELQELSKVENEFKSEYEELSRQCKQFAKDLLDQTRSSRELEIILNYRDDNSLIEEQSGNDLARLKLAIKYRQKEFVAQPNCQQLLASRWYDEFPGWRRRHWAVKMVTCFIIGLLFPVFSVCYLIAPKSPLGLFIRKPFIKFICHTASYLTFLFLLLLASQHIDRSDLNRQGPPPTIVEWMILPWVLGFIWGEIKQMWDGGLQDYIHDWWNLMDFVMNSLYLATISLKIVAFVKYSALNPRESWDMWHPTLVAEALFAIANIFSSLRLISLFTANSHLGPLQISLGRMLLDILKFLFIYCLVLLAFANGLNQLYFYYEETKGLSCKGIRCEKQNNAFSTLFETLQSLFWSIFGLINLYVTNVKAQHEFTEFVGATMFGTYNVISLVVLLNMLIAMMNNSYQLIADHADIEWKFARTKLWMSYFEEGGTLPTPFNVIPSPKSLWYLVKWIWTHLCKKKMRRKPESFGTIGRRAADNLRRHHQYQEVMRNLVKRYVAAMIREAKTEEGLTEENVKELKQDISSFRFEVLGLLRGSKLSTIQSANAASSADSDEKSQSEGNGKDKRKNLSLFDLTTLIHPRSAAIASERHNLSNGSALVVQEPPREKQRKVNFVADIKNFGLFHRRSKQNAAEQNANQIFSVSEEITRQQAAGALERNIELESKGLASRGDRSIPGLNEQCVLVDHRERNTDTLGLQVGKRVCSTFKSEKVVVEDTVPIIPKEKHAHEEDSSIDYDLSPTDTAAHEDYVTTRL

[10] = target: T4, Short transient receptor potential channel 4; experiment: block of DAMGO-driven TRPC4 calcium entry – cell-based, HEK293 TRPC4/mu-opioid, Fluo-4 calcium, dose response (AID 434942); format: functional;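 further: potency of inhibitors blocking the TRPC4 calcium response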
Mu-type opioid receptor = Mu-type opioid receptor (Homo sapiens, UniProt P35372); experiment: (§1) Counterscreen for agonists of heterodimerization of the mu 1 (OPRM1) and delta 1 (OPRD1) opioid receptors: Luminescence-based cell-based high throughput dose response assay to identify agonists of OPRM1 homodimerization.; format: functional
[11] = target: 5-hydroxytryptamine receptor 5A (Homo sapiens, UniProt P47898); experiment: Counterscreen for agonists of OPRM1-OPRD1 heterodimerization: luminescence-based cell-based high throughput dose response assay to identify agonists of 5-hydroxytryptamine (serotonin) 5A receptor (HTR5A). [Related pubchem assays (depositor defined):AID504326, AID504355, AID504692, AID504904, AID504905]; format: functional
[12] = target: Delta-type opioid receptor (Homo sapiens, UniProt P41143); experiment: as §1, with “of OPRD1” for “of OPRM1”, “homodimerization. [Related pubchem assays (depositor defined):AID504326, AID504355, AID504692, AID504904, AID504905]” for “homodimerization.”; format: functional
[13] = Trypanosoma cruzi growth suppression in host cells – NIH3T3 host cells, beta-gal luminescence, confirmation (AID 2044); format: functional, cell-based;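 further: intracellular parasites grown in NIH/3T3 mouse fibroblasts as host cells; luminescent beta-galactosidase reporter signal from transgenic T. cruzi replicating inside host cells; inhibitors lower the luminescence signal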
[14] = THP-1 cell cytotoxicity, dose response, cytotoxicity control for non-replicating M. tuberculosis project (AID 489025); format: functional
cells [15] = format: functional
[16] = NIH3T3 cell viability loss – ATP luminescence, mouse fibroblasts, counter-screen, dose response (AID 2010); format: functional, cell-based;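 further: cells exposed to compound for about 90 hours before reading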
[17] = target: T5, Carboxy-terminal domain RNA polymerase II polypeptide A small phosphatase 1 (Homo sapiens, UniProt Q9GZU7); experiment: CTDSP1 inhibitors, concentration-response, biochemical, absorbance readout, ultra-high-throughput screen actives (AID 540297); format: functional
T5 sequence (Q9GZU7 whole entry): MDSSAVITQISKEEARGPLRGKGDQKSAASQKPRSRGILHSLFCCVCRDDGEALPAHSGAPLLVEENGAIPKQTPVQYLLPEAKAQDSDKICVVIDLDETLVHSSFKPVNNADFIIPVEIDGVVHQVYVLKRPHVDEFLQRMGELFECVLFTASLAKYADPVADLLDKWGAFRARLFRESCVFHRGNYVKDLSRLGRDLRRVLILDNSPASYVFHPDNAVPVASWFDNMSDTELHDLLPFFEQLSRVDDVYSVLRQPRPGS

Sequence of 5-hydroxytryptamine receptor 5A (P47898 whole entry): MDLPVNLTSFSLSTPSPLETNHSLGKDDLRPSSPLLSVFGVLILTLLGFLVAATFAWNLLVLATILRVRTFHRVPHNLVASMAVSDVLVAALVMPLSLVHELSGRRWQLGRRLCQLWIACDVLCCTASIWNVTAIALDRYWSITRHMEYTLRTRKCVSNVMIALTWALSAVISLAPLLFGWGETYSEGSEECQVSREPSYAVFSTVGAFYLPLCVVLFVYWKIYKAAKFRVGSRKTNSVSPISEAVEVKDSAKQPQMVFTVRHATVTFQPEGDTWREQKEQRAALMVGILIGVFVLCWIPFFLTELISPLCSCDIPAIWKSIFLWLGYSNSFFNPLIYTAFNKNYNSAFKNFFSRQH
Sequence of Mu-type opioid receptor (P35372 whole entry): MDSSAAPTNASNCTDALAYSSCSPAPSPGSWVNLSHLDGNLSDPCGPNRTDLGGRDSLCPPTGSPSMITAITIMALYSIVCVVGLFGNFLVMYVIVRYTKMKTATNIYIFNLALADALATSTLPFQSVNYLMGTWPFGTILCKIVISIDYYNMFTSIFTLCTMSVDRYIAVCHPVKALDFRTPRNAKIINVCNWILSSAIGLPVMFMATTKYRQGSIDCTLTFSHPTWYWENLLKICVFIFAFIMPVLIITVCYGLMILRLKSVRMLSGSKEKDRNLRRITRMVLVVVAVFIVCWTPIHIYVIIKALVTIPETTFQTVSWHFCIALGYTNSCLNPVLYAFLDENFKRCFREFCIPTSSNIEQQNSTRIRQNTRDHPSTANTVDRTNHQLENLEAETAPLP
Sequence of Delta-type opioid receptor (P41143 whole entry): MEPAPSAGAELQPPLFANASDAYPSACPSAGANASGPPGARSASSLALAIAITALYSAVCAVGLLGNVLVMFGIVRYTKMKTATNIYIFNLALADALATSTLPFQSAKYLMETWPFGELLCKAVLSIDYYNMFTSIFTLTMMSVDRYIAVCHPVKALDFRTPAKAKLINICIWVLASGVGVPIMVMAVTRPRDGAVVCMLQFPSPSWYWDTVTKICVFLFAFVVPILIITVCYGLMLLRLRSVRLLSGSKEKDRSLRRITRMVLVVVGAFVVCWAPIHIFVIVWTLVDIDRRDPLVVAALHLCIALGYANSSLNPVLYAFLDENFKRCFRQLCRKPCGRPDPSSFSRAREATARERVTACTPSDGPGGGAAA
Sequence of ATP-dependent molecular chaperone HSP82 (C4YTQ8 whole entry): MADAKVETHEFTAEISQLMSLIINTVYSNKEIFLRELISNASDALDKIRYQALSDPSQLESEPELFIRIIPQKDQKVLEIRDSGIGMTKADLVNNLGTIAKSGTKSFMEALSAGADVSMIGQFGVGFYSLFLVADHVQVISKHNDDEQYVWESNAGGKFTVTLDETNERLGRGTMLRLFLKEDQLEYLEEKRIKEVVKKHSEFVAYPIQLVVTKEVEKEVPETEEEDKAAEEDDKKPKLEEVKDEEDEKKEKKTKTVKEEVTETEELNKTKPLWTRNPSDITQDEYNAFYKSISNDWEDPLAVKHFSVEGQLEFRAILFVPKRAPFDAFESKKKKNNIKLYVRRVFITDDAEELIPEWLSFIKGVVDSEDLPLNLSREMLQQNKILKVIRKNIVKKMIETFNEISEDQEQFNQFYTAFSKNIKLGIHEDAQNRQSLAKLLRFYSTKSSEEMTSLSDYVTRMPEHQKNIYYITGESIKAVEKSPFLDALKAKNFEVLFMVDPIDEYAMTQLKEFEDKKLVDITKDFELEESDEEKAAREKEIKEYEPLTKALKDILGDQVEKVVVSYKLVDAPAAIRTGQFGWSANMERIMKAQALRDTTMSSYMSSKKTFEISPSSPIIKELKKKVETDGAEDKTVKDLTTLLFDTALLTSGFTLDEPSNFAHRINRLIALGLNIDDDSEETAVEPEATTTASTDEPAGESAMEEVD

Cc1ccc(-c2nnc(Sc3nc4ccccc4o3)c3ccccc23)cc1
AC50 [1]: 6.09 µM (active) | EC50 (Protein RecA): 0.396 µM (active) | AC50 [2]: 2.39 µM (active) | EC50 (cells [3]): > 350 µM (not active) | EC50 (cells [4]): > 350 µM (not active) | CC50 (Vero): > 25 µM (active)

Cc1ccc(C(=O)Nc2cccc(-c3cn4ccccc4n3)c2)cc1
EC50 [5]: > 160 µM (inactive) | EC50 [6]: > 150 µM (inactive) | EC50 [7]: 0.628 µM (active) | EC50 [8]: > 180 µM (inactive)

CN(C)C(CNC(=O)c1ccc(C(F)(F)F)cc1)c1ccco1 (configuration not stated)
EC50 [9]: 0.267 µM (active) | EC50 [10]: 0.0533 µM (active) | EC50 (Mu-type opioid receptor): > 92.4 µM (inactive) | EC50 [11]: > 92.4 µM (inactive) | EC50 [12]: 91 µM (inactive)

C/C(=N/Nc1ccnc2cc(Cl)ccc12)c1ccc(N)cc1
EC50 [13]: 3.31 µM (active) | CC50 [14]: 23.4 µM (active) | IC50 (cells [15]): 29 µM (active) | EC50 (Mu-type opioid receptor): 54.7 µM (inactive) | EC50 [11]: > 92.4 µM (inactive) | EC50 [16]: > 60 µM (not active) | EC50 [12]: 29.5 µM (inactive)

COc1ccc(C(=O)N/N=C/c2ccc(OC(=O)c3cccc4ccccc34)c([N+](=O)[O-])c2)cc1
IC50 [17]: 2.4 µM (active)

O=C(O)c1cc(-c2ccc(/C=C3\NC(=O)N(c4ccccc4)C3=O)o2)ccc1Cl
IC50 [17]: 5.09 µM (active)

c1ccc(C2(N3CCCCC3)CCCCC2)cc1 [PHENCYCLIDINE HYDROCHLORIDE]
EC50 (Mu-type opioid receptor): 6.29 µM (active) | EC50 [11]: > 92.5 µM (inactive) | EC50 [12]: 33.6 µM (inactive)
